{"source": "patent US10787452B2", "about": "(Vertex Pharmaceuticals Incorporated, priority 2012, dated 2020)", "system": "HCT116 colorectal cancer cells", "assay": "Cisplatin sensitization assay (96 h cell viability MTS);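 note: compound concentration needed to lower the Cisplatin-alone IC50 by a set fold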", "assay_type": "cell-based", "settings": "96 h MTS, compound plus Cisplatin", "summary_of_the_method": "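Viability is measured with MTS reagent, added after 96 h and developed for 1 h at 37° C. Beforehand, cells receive compound and cisplatin simultaneously in a concentration matrix of 2-fold serial dilutions starting at 10 μM final.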"}
{"smiles": "Nc1nn2cc(Cl)cnc2c1C(=O)Nc1cnccc1N1CCC(N2CCC23COC3)CC1", "note": "[I-N-109, N-(4-(4-(6-oxa-1-azaspiro[3.3]heptan-1-yl)piperidin-1-yl)pyridin-3-yl)-2-amino-6-chloropyrazolo[1,5-a]pyrimidine-3-carboxamide]", "values": [{"measurement": "Cisplatin Sensitization Assay", "result": "+++ (Compounds with a Cisplatin sensitization value of <0.02 μM are marked with “+++.”)"}]}
{"smiles": "CN1CCN(c2c(NC(=O)c3c(N)nn4cc(F)cnc34)cncc2C(F)F)CC1", "note": "[I-N-111, 2-amino-N-(5-(difluoromethyl)-4-(4-methylpiperazin-1-yl)pyridin-3-yl)-6-fluoropyrazolo[1,5-a]pyrimidine-3-carboxamide]", "values": [{"measurement": "Cisplatin Sensitization Assay", "result": "++ (Compounds with a Cisplatin sensitization value >0.02 μM but <0.2 μM are marked with “++.”)"}]}
{"smiles": "CN1CCN(c2c(C#N)cncc2NC(=O)c2c(N)nn3cc(F)cnc23)CC1", "note": "[I-N-113, 2-amino-N-(5-cyano-4-(4-methylpiperazin-1-yl)pyridin-3-yl)-6-fluoropyrazolo[1,5-a]pyrimidine-3-carboxamide]", "values": [{"measurement": "Cisplatin Sensitization Assay", "result": "+ (Compounds with a Cisplatin sensitization value >0.2 μM but <5 μM are marked with “+.”)"}]}
{"smiles": "Nc1nn2cc(F)cnc2c1C(=O)Nc1cnccc1N1CCN2CCOC[C@@H]2C1", "note": "[I-N-115, (S)-2-amino-6-fluoro-N-(4-(hexahydropyrazino[2,1-c][1,4]oxazin-8(1H)-yl)pyridin-3-yl)pyrazolo[1,5-a]pyrimidine-3-carboxamide]", "values": [{"measurement": "Cisplatin Sensitization Assay", "result": "+++ (Compounds with a Cisplatin sensitization value of <0.02 μM are marked with “+++.”)"}]}
{"smiles": "Nc1nn2cc(F)cnc2c1C(=O)Nc1cnccc1N1CCN2CCOC[C@H]2C1", "note": "[I-N-116, (R)-2-amino-6-fluoro-N-(4-(hexahydropyrazino[2,1-c][1,4]oxazin-8(1H)-yl)pyridin-3-yl)pyrazolo[1,5-a]pyrimidine-3-carboxamide]", "values": [{"measurement": "Cisplatin Sensitization Assay", "result": "++ (Compounds with a Cisplatin sensitization value >0.02 μM but <0.2 μM are marked with “++.”)"}]}
{"smiles": "Nc1nn2cc(Cl)cnc2c1C(=O)Nc1cncc(F)c1N1CCN(C2COC2)CC1", "note": "[I-N-117, 2-amino-6-chloro-N-(5-fluoro-4-(4-(oxetan-3-yl)piperazin-1-yl)pyridin-3-yl)pyrazolo[1,5-a]pyrimidine-3-carboxamide]", "values": [{"measurement": "Cisplatin Sensitization Assay", "result": "+++ (Compounds with a Cisplatin sensitization value of <0.02 μM are marked with “+++.”)"}]}
{"smiles": "Nc1nn2cc(F)cnc2c1C(=O)Nc1cncc(F)c1N1CCNCC1", "note": "[I-N-118, 2-amino-6-fluoro-N-(5-fluoro-4-(piperazin-1-yl)pyridin-3-yl)pyrazolo[1,5-a]pyrimidine-3-carboxamide]", "values": [{"measurement": "Cisplatin Sensitization Assay", "result": "+++ (Compounds with a Cisplatin sensitization value of <0.02 μM are marked with “+++.”)"}]}
{"smiles": "Nc1nn2cc(F)cnc2c1C(=O)Nc1cncc(C2CC2)c1N1CCN([C@@H]2CCOC2)CC1", "note": "[I-N-119, (R)-2-amino-N-(5-cyclopropyl-4-(4-(tetrahydrofuran-3-yl)piperazin-1-yl)pyridin-3-yl)-6-fluoropyrazolo[1,5-a]pyrimidine-3-carboxamide]", "values": [{"measurement": "Cisplatin Sensitization Assay", "result": "++ (Compounds with a Cisplatin sensitization value >0.02 μM but <0.2 μM are marked with “++.”)"}]}
{"smiles": "Nc1nn2cc(F)cnc2c1C(=O)Nc1cncc(C2CC2)c1N1CCN([C@H]2CCOC2)CC1", "note": "[I-N-120, (S)-2-amino-N-(5-cyclopropyl-4-(4-(tetrahydrofuran-3-yl)piperazin-1-yl)pyridin-3-yl)-6-fluoropyrazolo[1,5-a]pyrimidine-3-carboxamide]", "values": [{"measurement": "Cisplatin Sensitization Assay", "result": "+++ (Compounds with a Cisplatin sensitization value of <0.02 μM are marked with “+++.”)"}]}
{"smiles": "Nc1nn2cc(F)cnc2c1C(=O)Nc1cncc(F)c1N1CCN(C2CCOCC2)CC1", "note": "[I-N-121, 2-amino-6-fluoro-N-(5-fluoro-4-(4-(tetrahydro-2H-pyran-4-yl)piperazin-1-yl)pyridin-3-yl)pyrazolo[1,5-a]pyrimidine-3-carboxamide]", "values": [{"measurement": "Cisplatin Sensitization Assay", "result": "+++ (Compounds with a Cisplatin sensitization value of <0.02 μM are marked with “+++.”)"}]}
{"smiles": "Nc1nn2cc(F)cnc2c1C(=O)Nc1cncc(F)c1N1CCN(C2CCOC2)CC1", "note": "(centres unmarked) [I-N-122, 2-amino-6-fluoro-N-(5-fluoro-4-(4-(tetrahydrofuran-3-yl)piperazin-1-yl)pyridin-3-yl)pyrazolo[1,5-a]pyrimidine-3-carboxamide]", "values": [{"measurement": "Cisplatin Sensitization Assay", "result": "++ (Compounds with a Cisplatin sensitization value >0.02 μM but <0.2 μM are marked with “++.”)"}]}
{"smiles": "Cc1cncc(NC(=O)c2c(N)nn3cc(F)cnc23)c1N1CCN(C2CCOCC2)CC1", "note": "[I-N-123, 2-amino-6-fluoro-N-(5-methyl-4-(4-(tetrahydro-2H-pyran-4-yl)piperazin-1-yl)pyridin-3-yl)pyrazolo[1,5-a]pyrimidine-3-carboxamide]", "values": [{"measurement": "Cisplatin Sensitization Assay", "result": "++ (Compounds with a Cisplatin sensitization value >0.02 μM but <0.2 μM are marked with “++.”)"}]}
{"smiles": "Nc1nn2cc(F)cnc2c1C(=O)Nc1cncc(Cl)c1N1CCN(C2CCOC2)CC1", "note": "(centres unmarked) [I-N-124, 2-amino-N-(5-chloro-4-(4-(tetrahydrofuran-3-yl)piperazin-1-yl)pyridin-3-yl)-6-fluoropyrazolo[1,5-a]pyrimidine-3-carboxamide]", "values": [{"measurement": "Cisplatin Sensitization Assay", "result": "+++ (Compounds with a Cisplatin sensitization value of <0.02 μM are marked with “+++.”)"}]}
{"smiles": "Nc1nn2cc(F)cnc2c1C(=O)Nc1cncc(F)c1N1CCN([C@H]2CCOC2)CC1", "note": "[I-N-125, (S)-2-amino-6-fluoro-N-(5-fluoro-4-(4-(tetrahydrofuran-3-yl)piperazin-1-yl)pyridin-3-yl)pyrazolo[1,5-a]pyrimidine-3-carboxamide]", "values": [{"measurement": "Cisplatin Sensitization Assay", "result": "+++ (Compounds with a Cisplatin sensitization value of <0.02 μM are marked with “+++.”)"}]}
{"smiles": "Nc1nn2cc(F)cnc2c1C(=O)Nc1cncc(Cl)c1N1CCNCC1", "note": "[I-N-126, 2-amino-N-(5-chloro-4-(piperazin-1-yl)pyridin-3-yl)-6-fluoropyrazolo[1,5-a]pyrimidine-3-carboxamide]", "values": [{"measurement": "Cisplatin Sensitization Assay", "result": "+++ (Compounds with a Cisplatin sensitization value of <0.02 μM are marked with “+++.”)"}]}
{"smiles": "COCCN1CCN(c2c(F)cncc2NC(=O)c2c(N)nn3cc(F)cnc23)CC1", "note": "[I-N-127, 2-amino-6-fluoro-N-(5-fluoro-4-(4-(2-methoxyethyl)piperazin-1-yl)pyridin-3-yl)pyrazolo[1,5-a]pyrimidine-3-carboxamide]", "values": [{"measurement": "Cisplatin Sensitization Assay", "result": "+++ (Compounds with a Cisplatin sensitization value of <0.02 μM are marked with “+++.”)"}]}
{"smiles": "CN1CCC(C(=O)N2CCN(c3c(F)cncc3NC(=O)c3c(N)nn4cc(F)cnc34)CC2)CC1", "note": "[I-N-128, 2-amino-6-fluoro-N-(5-fluoro-4-(4-(1-methylpiperidine-4-carbonyl)piperazin-1-yl)pyridin-3-yl)pyrazolo[1,5-a]pyrimidine-3-carboxamide]", "values": [{"measurement": "Cisplatin Sensitization Assay", "result": "+++ (Compounds with a Cisplatin sensitization value of <0.02 μM are marked with “+++.”)"}]}
{"smiles": "Nc1nn2cc(F)cnc2c1C(=O)Nc1cncc(F)c1N1CCN(C(=O)C2CN3CCC2CC3)CC1", "note": "(centres unmarked) [I-N-130, 2-amino-6-fluoro-N-(5-fluoro-4-(4-(quinuclidine-3-carbonyl)piperazin-1-yl)pyridin-3-yl)pyrazolo[1,5-a]pyrimidine-3-carboxamide]", "values": [{"measurement": "Cisplatin Sensitization Assay", "result": "++ (Compounds with a Cisplatin sensitization value >0.02 μM but <0.2 μM are marked with “++.”)"}]}
{"smiles": "CN1CC[C@@H](OC2CCN(c3ccncc3NC(=O)c3c(N)nn4cc(F)cnc34)CC2)C1", "note": "[I-N-131]", "values": [{"measurement": "Cisplatin Sensitization Assay", "result": "+++ (Compounds with a Cisplatin sensitization value of <0.02 μM are marked with “+++.”)"}]}
{"smiles": "CN1CC[C@@H](OC2CCN(c3c(F)cncc3NC(=O)c3c(N)nn4cc(F)cnc34)CC2)C1", "note": "[I-N-132, (R)-2-amino-6-fluoro-N-(5-fluoro-4-(4-((1-methylpyrrolidin-3-yl)oxy)piperidin-1-yl)pyridin-3-yl)pyrazolo[1,5-a]pyrimidine-3-carboxamide]", "values": [{"measurement": "Cisplatin Sensitization Assay", "result": "+++ (Compounds with a Cisplatin sensitization value of <0.02 μM are marked with “+++.”)"}]}
{"smiles": "CN1CCN(c2ccncc2NC(=O)c2c(N)nn3cc(F)cnc23)CC12CCOCC2", "note": "[I-N-133, 2-amino-6-fluoro-N-(4-(1-methyl-9-oxa-1,4-diazaspiro[5.5]undecan-4-yl)pyridin-3-yl)pyrazolo[1,5-a]pyrimidine-3-carboxamide]", "values": [{"measurement": "Cisplatin Sensitization Assay", "result": "++ (Compounds with a Cisplatin sensitization value >0.02 μM but <0.2 μM are marked with “++.”)"}]}
{"smiles": "Nc1nn2cc(F)cnc2c1C(=O)Nc1cncc(F)c1N1CCN(C(=O)C23CCN(CC2)CC3)CC1", "note": "[I-N-134, 2-amino-6-fluoro-N-(5-fluoro-4-(4-(quinuclidine-4-carbonyl)piperazin-1-yl)pyridin-3-yl)pyrazolo[1,5-a]pyrimidine-3-carboxamide]", "values": [{"measurement": "Cisplatin Sensitization Assay", "result": "+ (Compounds with a Cisplatin sensitization value >0.2 μM but <5 μM are marked with “+.”)"}]}
{"smiles": "Nc1nn2cc(F)cnc2c1C(=O)Nc1cncc(F)c1N1CCN2CCOC[C@H]2C1", "note": "[I-N-135, (R)-2-amino-6-fluoro-N-(5-fluoro-4-(hexahydropyrazino[2,1-c][1,4]oxazin-8(1H)-yl)pyridin-3-yl)pyrazolo[1,5-a]pyrimidine-3-carboxamide]", "values": [{"measurement": "Cisplatin Sensitization Assay", "result": "+++ (Compounds with a Cisplatin sensitization value of <0.02 μM are marked with “+++.”)"}]}
{"smiles": "Nc1nn2cc(F)cnc2c1C(=O)Nc1cnccc1N1CCN2C(=O)COCC2C1", "note": "(centres unmarked) [I-N-136, 2-amino-6-fluoro-N-(4-(4-oxohexahydropyrazino[2,1-c][1,4]oxazin-8(1H)-yl)pyridin-3-yl)pyrazolo[1,5-a]pyrimidine-3-carboxamide]", "values": [{"measurement": "Cisplatin Sensitization Assay", "result": "++ (Compounds with a Cisplatin sensitization value >0.02 μM but <0.2 μM are marked with “++.”)"}]}
{"smiles": "Nc1nn2cc(F)cnc2c1C(=O)Nc1cncc(F)c1N1CCN2CCOC[C@@H]2C1", "note": "[I-N-137, (S)-2-amino-6-fluoro-N-(5-fluoro-4-(hexahydropyrazino[2,1-c][1,4]oxazin-8(1H)-yl)pyridin-3-yl)pyrazolo[1,5-a]pyrimidine-3-carboxamide]", "values": [{"measurement": "Cisplatin Sensitization Assay", "result": "++ (Compounds with a Cisplatin sensitization value >0.02 μM but <0.2 μM are marked with “++.”)"}]}
{"smiles": "CN1CCN(c2c(F)cncc2NC(=O)c2c(N)nn3cc(C(C)(C)C#N)cnc23)CC1", "note": "[I-N-138, 2-amino-6-(2-cyanopropan-2-yl)-N-(5-fluoro-4-(4-methylpiperazin-1-yl)pyridin-3-yl)pyrazolo[1,5-a]pyrimidine-3-carboxamide]", "values": [{"measurement": "Cisplatin Sensitization Assay", "result": "++ (Compounds with a Cisplatin sensitization value >0.02 μM but <0.2 μM are marked with “++.”)"}]}
